Where two headings read alike, the source gives them in different places.
Legend:
Format in all cases: cell-based
[1] = tested on: Pseudomonas aeruginosa (27853); experiment: MIC, broth microdilution, Pseudomonas aeruginosa (27853); details: pH 3, Mueller Hinton Broth, 18 to 24 hours
Procedure: (§1) MIC testing is conducted using the broth (Mueller Hinton Broth) microdilution procedures relevant to each organism group as established by the Clinical and Laboratory Standards Institute (CLSI; 3-7). MIC plates are prepared in accordance with CLSI (3-7). To prepare the test plates, automated liquid handlers are used to conduct serial dilutions and liquid transfers. Automated liquid handlers utilized in this study include the Multidrop 384 (Labsystems, Helsinki, Finland) and the Biomek 2000 (Beckman Coulter, Fullerton CA). The solution is diluted to desired pH using 1 M Citric Acid or 1 M NaOH buffer. A standardized inoculum of each test organism is prepared per CLSI methods (3, 5-7) to equal a 0.5 McFarland standard in the appropriate media followed by an additional 1:20 dilution (1:10 for anaerobes).
(§2) The plates are then inoculated with 10 μL of the diluted 0.5 McFarland suspension using the Biomek 2000 from low to high drug concentration, resulting in a final concentration of approximately 5×10^5 CFU/mL per well. An un-inoculated plate is incubated for the purpose of assessing solubility of the drug in the test media. The plates are stacked 3 to 4 high, covered with a sterile lid on the top plate, and incubated for 18 to 24 hours according to CLSI. The MIC is recorded as the lowest concentration of respective compound that inhibited visible growth of the organism.

Escherichia coli (25922) = experiment: MIC, broth microdilution, Escherichia coli (25922); details: pH 3, Mueller Hinton Broth, 18 to 24 hours
Procedure: as §1, §2

Candida albicans (22972) = experiment: MIC, broth microdilution, Candida albicans (22972); details: pH 3, Mueller Hinton Broth, 18 to 24 hours
Procedure: as §1, §2

[2] = tested on: Staphylococcus aureus (43330); experiment: MIC, broth microdilution, Staphylococcus aureus (43330); details: pH 3, Mueller Hinton Broth, 18 to 24 hours
Procedure: as §1, §2

[3] = tested on: S. dysgalactiae ATCC-6644; experiment: MIC, broth microdilution, S. dysgalactiae ATCC-6644; set-up: unit not given beside the values; details: S. dysgalactiae ATCC-6644, Gram +ve; pH 3; 18 to 24 hours
Procedure: as §1, §2

C. striatum ATCC-6940 = experiment: MIC, broth microdilution, C. striatum ATCC-6940; details: C. striatum ATCC-6940, Gram +ve; pH 3; 18 to 24 hours
Procedure: as §1, §2

K. pneumoniae ATCC-43816 = experiment: MIC, broth microdilution, K. pneumoniae ATCC-43816; set-up: unit not given beside the values; details: K. pneumoniae ATCC-43816, Gram −ve; pH 3; 18 to 24 hours
Procedure: as §1, §2

A. baumannii ATCC-19606 = experiment: MIC, broth microdilution, A. baumannii ATCC-19606; set-up: unit not given beside the values; details: A. baumannii ATCC-19606, Gram −ve; pH 3; 18 to 24 hours
Procedure: as §1, §2

E. coli ATCC-25922 = experiment: MIC, broth microdilution, E. coli ATCC-25922; set-up: unit not given beside the values; details: E. coli ATCC-25922, Gram −ve; pH 3; 18 to 24 hours
Procedure: as §1, §2

S. aureus ATCC-29213 = experiment: MIC, broth microdilution, S. aureus ATCC-29213; set-up: unit not given beside the values; details: S. aureus ATCC-29213, Gram +ve; pH 3; 18 to 24 hours
Procedure: as §1, §2

E. coli MMX-8870 = experiment: MIC, broth microdilution, E. coli MMX-8870; details: E. coli MMX-8870, Gram −ve; pH 3; 18 to 24 hours
Procedure: as §1, §2

[4] = tested on: A. radioresistens MMX-8551; experiment: MIC, broth microdilution, A. radioresistens MMX-8551; set-up: unit not given beside the values; details: A. radioresistens MMX-8551, Gram −ve; pH 3; 18 to 24 hours
Procedure: as §1, §2

S. aureus ATCC -3591 = experiment: MIC, broth microdilution, S. aureus ATCC -3591; set-up: unit not given beside the values; details: S. aureus ATCC -3591, Gram +ve; pH 3; 18 to 24 hours
Procedure: as §1, §2

E. faecium ATCC-35667 = experiment: MIC, broth microdilution, E. faecium ATCC-35667; details: E. faecium ATCC-35667, Gram +ve; pH 3; 18 to 24 hours
Procedure: as §1, §2

[5] = tested on: S. haemolyticus ATCC-29970; experiment: MIC, broth microdilution, S. haemolyticus ATCC-29970; details: S. haemolyticus ATCC-29970, Gram +ve; pH 3; 18 to 24 hours
Procedure: as §1, §2

E. faecalis ATCC-29212 = experiment: MIC, broth microdilution, E. faecalis ATCC-29212; set-up: unit not given beside the values; details: E. faecalis ATCC-29212, Gram +ve; pH 3; 18 to 24 hours
Procedure: as §1, §2

H. influenzae ATCC-49247 = experiment: MIC, broth microdilution, H. influenzae ATCC-49247; set-up: unit not given beside the values; details: H. influenzae ATCC-49247, Gram −ve; pH 3; 18 to 24 hours
Procedure: as §1, §2

E. faecalis MMX-3353 = experiment: MIC, broth microdilution, E. faecalis MMX-3353; details: E. faecalis MMX-3353, Gram +ve; pH 3; 18 to 24 hours
Procedure: as §1, §2

P. aeruginosa ATCC-27853 = experiment: MIC, broth microdilution, P. aeruginosa ATCC-27853; set-up: unit not given beside the values; details: P. aeruginosa ATCC-27853, Gram −ve; pH 3; 18 to 24 hours
Procedure: as §1, §2

E. cloacae ATCC BAA-2468 = experiment: MIC, broth microdilution, E. cloacae ATCC BAA-2468; set-up: unit not given beside the values; details: E. cloacae ATCC BAA-2468, Gram −ve; pH 3; 18 to 24 hours
Procedure: as §1, §2

M. morganii CDC-0519 = experiment: MIC, broth microdilution, M. morganii CDC-0519; set-up: unit not given beside the values; details: M. morganii CDC-0519, Gram −ve; pH 3; 18 to 24 hours
Procedure: as §1, §2

[6] = tested on: S. saprophyticus ATCC-49907; experiment: MIC, broth microdilution, S. saprophyticus ATCC-49907; set-up: unit not given beside the values; details: S. saprophyticus ATCC-49907, Gram +ve; pH 3; 18 to 24 hours
Procedure: as §1, §2

S. agalactiae ATCC-13813 = experiment: MIC, broth microdilution, S. agalactiae ATCC-13813; set-up: unit not given beside the values; details: S. agalactiae ATCC-13813, Gram +ve; pH 3; 18 to 24 hours
Procedure: as §1, §2

P. mirabilis CDC-0155 = experiment: MIC, broth microdilution, P. mirabilis CDC-0155; set-up: unit not given beside the values; details: P. mirabilis CDC-0155, Gram −ve; pH 3; 18 to 24 hours
Procedure: as §1, §2

S. pyogenes ATCC-49399 = experiment: MIC, broth microdilution, S. pyogenes ATCC-49399; set-up: unit not given beside the values; details: S. pyogenes ATCC-49399, Gram +ve; pH 3; 18 to 24 hours
Procedure: as §1, §2

E. faecium MMX-3355 = experiment: MIC, broth microdilution, E. faecium MMX-3355; set-up: unit not given beside the values; details: E. faecium MMX-3355, Gram +ve; pH 3; 18 to 24 hours
Procedure: as §1, §2

[7] = tested on: K. pneumoniae ATCC BAA-2146; experiment: MIC, broth microdilution, K. pneumoniae ATCC BAA-2146; set-up: unit not given beside the values; details: K. pneumoniae ATCC BAA-2146, Gram −ve; pH 3; 18 to 24 hours
Procedure: as §1, §2

C. freundii CDC-0157 = experiment: MIC, broth microdilution, C. freundii CDC-0157; set-up: unit not given beside the values; details: C. freundii CDC-0157, Gram −ve; pH 3; 18 to 24 hours
Procedure: as §1, §2

(2R,3S,5R)-5-(4-amino-2-oxopyridizin-1(2H)-yl)-3-hydroxytetrahydrofuran-2-methyl butyl phosphate [LAI-011]
MIC [1]: 5 mg/mL | MIC (Escherichia coli (25922)): 25 mg/mL | MIC (Candida albicans (22972)): 5 mg/mL | MIC [2]: 25 mg/mL

CC(C)CCOP(=O)(O)OC[C@H]1O[C@@H](n2ccc(N)nc2=O)C[C@@H]1O [LAI-004, ((2R,3S,5R)-5-(4-amino-2-oxopyrimidin-1(2H)-yl)-3-hydroxytetrahydrofuran-2-yl)methyl isopentyl hydrogen phosphate]
MIC ([1]; read-out: MIC): 5 mg/mL | MIC (Escherichia coli (25922); read-out: MIC): 25 mg/mL | MIC (Candida albicans (22972); read-out: MIC): 50 mg/mL | MIC ([2]; read-out: MIC): 50 mg/mL

CC(C)COP(=O)(O)OC[C@H]1O[C@@H](n2ccc(N)nc2=O)C[C@@H]1O [LAI-003, ((2R,3S,5R)-5-(4-amino-2-oxopyrimidin-1(2H)-yl)-3-hydroxytetrahydrofuran-2-yl)methyl isobutyl hydrogen phosphate]
MIC ([1]; read-out: MIC): 20 mg/mL | MIC (Escherichia coli (25922); read-out: MIC): 20 mg/mL | MIC (Candida albicans (22972); read-out: MIC): 20 mg/mL | MIC ([2]; read-out: MIC): 20 mg/mL

Nc1ccn([C@H]2C[C@H](O)[C@@H](COP(=O)(O)OCCCC(F)(F)F)O2)c(=O)n1 [LAI-005, ((2R,3S,5R)-5-(4-amino-2-oxopyrimidin-1(2H)-yl)-3-hydroxytetrahydrofuran-2-yl)methyl (4,4,4-trifluorobutyl) hydrogen phosphate]
MIC ([1]; read-out: MIC): 25 mg/mL | MIC (Escherichia coli (25922); read-out: MIC): 25 mg/mL | MIC ([2]; read-out: MIC): 50 mg/mL

CCCCOP(=O)(O)OC[C@@H]1CC[C@H](n2ccc(N)nc2=O)O1 [LAI-007, ((2S,5R)-5-(4-amino-2-oxopyrimidin-1(2H)-yl)tetrahydrofuran-2-yl)methyl butyl hydrogen phosphate]
MIC [3]: 12.50 | MIC (C. striatum ATCC-6940): 1.56 | MIC (K. pneumoniae ATCC-43816): 12.50 | MIC (A. baumannii ATCC-19606): 6.25 | MIC (E. coli ATCC-25922): 6.25 | MIC (S. aureus ATCC-29213): 6.25 | MIC (E. coli MMX-8870): 12.50 | MIC [4]: 6.25 | MIC (S. aureus ATCC -3591): 6.25 | MIC (E. faecium ATCC-35667): 6.25 | MIC [5]: 6.25 | MIC (E. faecalis ATCC-29212): 6.25 | MIC (H. influenzae ATCC-49247): 1.56 | MIC ([1]; read-out: MIC): 5 mg/mL | MIC (E. faecalis MMX-3353): 6.25 | MIC (P. aeruginosa ATCC-27853): 8.75 | MIC (E. cloacae ATCC BAA-2468): 6.25 | MIC (Escherichia coli (25922); read-out: MIC): 25 mg/mL | MIC (M. morganii CDC-0519): 3.13 | MIC [6]: 3.13 | MIC (S. agalactiae ATCC-13813): 1.56 | MIC ([2]; read-out: MIC): 5 mg/mL | MIC (P. mirabilis CDC-0155): 3.13 | MIC (S. pyogenes ATCC-49399): 3.13 | MIC (E. faecium MMX-3355): 6.25 | MIC [7]: 6.25 | MIC (C. freundii CDC-0157): 3.13

Source: US20260297118A1, “SUBSTITUTED PYRIMIDINONE AND AZAPYRIMIDINONE COMPOUNDS, COMPOSITIONS, AND USES THEREOF” (LAKEWOOD AMEDEX, INC., priority 2023, published 2026)
